{
  "source": "BigSolDB 2.1",
  "data": [
    {"compound": "O=C(O[C@@H]1Cc2c(O)cc(O)cc2O[C@@H]1c1cc(O)c(O)c(O)c1)c1cc(O)c(O)c(O)c1", "values": [
      {"measurement": "solubility (mole fraction)", "setting": "in 2-butoxyethanol, 278.15 K", "result": 0.00142},
      {"measurement": "solubility (mole fraction)", "setting": "in 2-butoxyethanol, 288.15 K", "result": 0.00195},
      {"measurement": "solubility (mole fraction)", "setting": "in 2-butoxyethanol, 298.15 K", "result": 0.00268},
      {"measurement": "solubility (mole fraction)", "setting": "in 2-butoxyethanol, 308.15 K", "result": 0.00384},
      {"measurement": "solubility (mole fraction)", "setting": "in 2-butoxyethanol, 318.15 K", "result": 0.00559},
      {"measurement": "solubility (mole fraction)", "setting": "in 2-ethoxyethanol, 278.15 K", "result": 0.00904},
      {"measurement": "solubility (mole fraction)", "setting": "in 2-ethoxyethanol, 288.15 K", "result": 0.0151},
      {"measurement": "solubility (mole fraction)", "setting": "in 2-ethoxyethanol, 298.15 K", "result": 0.0272},
      {"measurement": "solubility (mole fraction)", "setting": "in 2-ethoxyethanol, 308.15 K", "result": 0.0436},
      {"measurement": "solubility (mole fraction)", "setting": "in 2-ethoxyethanol, 318.15 K", "result": 0.0701},
      {"measurement": "solubility (mole fraction)", "setting": "in 2-methoxyethanol, 278.15 K", "result": 0.0158},
      {"measurement": "solubility (mole fraction)", "setting": "in 2-methoxyethanol, 288.15 K", "result": 0.0254},
      {"measurement": "solubility (mole fraction)", "setting": "in 2-methoxyethanol, 298.15 K", "result": 0.0365},
      {"measurement": "solubility (mole fraction)", "setting": "in 2-methoxyethanol, 308.15 K", "result": 0.0558},
      {"measurement": "solubility (mole fraction)", "setting": "in 2-methoxyethanol, 318.15 K", "result": 0.0815},
      {"measurement": "solubility (mole fraction)", "setting": "in 2-propoxyethanol, 278.15 K", "result": 0.00275},
      {"measurement": "solubility (mole fraction)", "setting": "in 2-propoxyethanol, 288.15 K", "result": 0.00352},
      {"measurement": "solubility (mole fraction)", "setting": "in 2-propoxyethanol, 298.15 K", "result": 0.00456},
      {"measurement": "solubility (mole fraction)", "setting": "in 2-propoxyethanol, 308.15 K", "result": 0.0059},
      {"measurement": "solubility (mole fraction)", "setting": "in 2-propoxyethanol, 318.15 K", "result": 0.00809},
      {"measurement": "solubility (mole fraction)", "setting": "in ethanol, 278.15 K", "result": "5.41e-05"},
      {"measurement": "solubility (mole fraction)", "setting": "in ethanol, 288.15 K", "result": "9.24e-05"},
      {"measurement": "solubility (mole fraction)", "setting": "in ethanol, 298.15 K", "result": 0.000175},
      {"measurement": "solubility (mole fraction)", "setting": "in ethanol, 308.15 K", "result": 0.000387},
      {"measurement": "solubility (mole fraction)", "setting": "in ethanol, 318.15 K", "result": 0.000714},
      {"measurement": "solubility (mole fraction)", "setting": "in isopropanol, 278.15 K", "result": "6e-06"},
      {"measurement": "solubility (mole fraction)", "setting": "in isopropanol, 288.15 K", "result": "1.67e-05"},
      {"measurement": "solubility (mole fraction)", "setting": "in isopropanol, 298.15 K", "result": "5.53e-05"},
      {"measurement": "solubility (mole fraction)", "setting": "in isopropanol, 308.15 K", "result": 0.000194},
      {"measurement": "solubility (mole fraction)", "setting": "in isopropanol, 318.15 K", "result": 0.000481},
      {"measurement": "solubility (mole fraction)", "setting": "in methanol, 288.15 K", "result": "1.65e-05"},
      {"measurement": "solubility (mole fraction)", "setting": "in methanol, 298.15 K", "result": "5.8e-05"},
      {"measurement": "solubility (mole fraction)", "setting": "in methanol, 308.15 K", "result": 0.000184},
      {"measurement": "solubility (mole fraction)", "setting": "in methanol, 318.15 K", "result": 0.000612},
      {"measurement": "solubility (mole fraction)", "setting": "in n-butanol, 288.15 K", "result": "1.95e-05"},
      {"measurement": "solubility (mole fraction)", "setting": "in n-butanol, 298.15 K", "result": "5.41e-05"},
      {"measurement": "solubility (mole fraction)", "setting": "in n-butanol, 308.15 K", "result": 0.000136},
      {"measurement": "solubility (mole fraction)", "setting": "in n-butanol, 318.15 K", "result": 0.000349},
      {"measurement": "solubility (mole fraction)", "setting": "in n-hexanol, 278.15 K", "result": "6.8e-07"},
      {"measurement": "solubility (mole fraction)", "setting": "in n-hexanol, 288.15 K", "result": "3.87e-06"},
      {"measurement": "solubility (mole fraction)", "setting": "in n-hexanol, 298.15 K", "result": "1.79e-05"},
      {"measurement": "solubility (mole fraction)", "setting": "in n-hexanol, 308.15 K", "result": "5.35e-05"},
      {"measurement": "solubility (mole fraction)", "setting": "in n-hexanol, 318.15 K", "result": 0.000138},
      {"measurement": "solubility (mole fraction)", "setting": "in n-pentanol, 278.15 K", "result": "9.9e-07"},
      {"measurement": "solubility (mole fraction)", "setting": "in n-pentanol, 288.15 K", "result": "5.7e-06"},
      {"measurement": "solubility (mole fraction)", "setting": "in n-pentanol, 298.15 K", "result": "3.01e-05"},
      {"measurement": "solubility (mole fraction)", "setting": "in n-pentanol, 308.15 K", "result": "8.6e-05"},
      {"measurement": "solubility (mole fraction)", "setting": "in n-pentanol, 318.15 K", "result": 0.000187},
      {"measurement": "solubility (mole fraction)", "setting": "in n-propanol, 278.15 K", "result": "1.22e-05"},
      {"measurement": "solubility (mole fraction)", "setting": "in n-propanol, 288.15 K", "result": "3.79e-05"},
      {"measurement": "solubility (mole fraction)", "setting": "in n-propanol, 298.15 K", "result": "9.06e-05"},
      {"measurement": "solubility (mole fraction)", "setting": "in n-propanol, 308.15 K", "result": 0.000195},
      {"measurement": "solubility (mole fraction)", "setting": "in n-propanol, 318.15 K", "result": 0.000656},
      {"measurement": "solubility (mole fraction)", "setting": "in sec-butanol, 278.15 K", "result": "5.04e-06"},
      {"measurement": "solubility (mole fraction)", "setting": "in sec-butanol, 288.15 K", "result": "2.12e-05"},
      {"measurement": "solubility (mole fraction)", "setting": "in sec-butanol, 298.15 K", "result": "4.97e-05"},
      {"measurement": "solubility (mole fraction)", "setting": "in sec-butanol, 308.15 K", "result": 0.00014},
      {"measurement": "solubility (mole fraction)", "setting": "in sec-butanol, 318.15 K", "result": 0.000636}
    ]}
  ]
}
